# PubChem BioAssay AID2060325 (Molecular Pharmacology Branch, DTP, NCI, 2025)
# Test system: SK-OV-3 multi-cell spheroids, viability
# Assay: Anticancer human tumor SK-OV-3 cell line growth inhibition [IpAb];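 as to viability, T/C: viability read after seven days of drug exposure; percent of DMSO vehicle control luminescence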
# Conditions: for IC50: curve of first compound; for viability, T/C: stronger effect = lower value
# Summary of the method: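 Multi-cell spheroids of 60% tumour cells, 25% HUVEC and 15% MSC in ultra-low-attachment U-bottom wells, treated with agents combined with ipatasertib or abemaciclib. Half-log ranges top out near clinical Cmax, or 10 microM when Cmax is unknown.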
smiles,measurement,setting,value
C=CC(=O)N1CCN(c2nc(=O)n(-c3c(C)ccnc3C(C)C)c3nc(-c4c(O)cccc4F)c(F)cc23)C(C)C1 (stereo not given) + CCN1CCN(Cc2ccc(Nc3ncc(F)c(-c4cc(F)c5nc(C)n(C(C)C)c5c4)n3)nc2)CC1,IC50,second compound 0.01 µM,> 10000 nM
same,IC50,second compound 0.0316 µM,> 10000 nM
same,IC50,second compound 0.1 µM,> 10000 nM
same,IC50,second compound 0.316 µM,> 10000 nM
same,IC50,second compound 1 µM,> 10000 nM
same,"viability, T/C","second compound 0.01 µM, first compound 0.0316 µM",89.9%
same,"viability, T/C","second compound 0.01 µM, first compound 0.1 µM",99.2%
same,"viability, T/C","second compound 0.01 µM, first compound 0.316 µM",93.8%
same,"viability, T/C","second compound 0.01 µM, first compound 1 µM",107%
same,"viability, T/C","second compound 0.01 µM, first compound 3.16 µM",96.5%
same,"viability, T/C","second compound 0.01 µM, first compound 10 µM",61.7%
same,"viability, T/C","second compound 0.0316 µM, first compound 0.0316 µM",74.4%
same,"viability, T/C","second compound 0.0316 µM, first compound 0.1 µM",82.8%
same,"viability, T/C","second compound 0.0316 µM, first compound 0.316 µM",79%
same,"viability, T/C","second compound 0.0316 µM, first compound 1 µM",81.8%
same,"viability, T/C","second compound 0.0316 µM, first compound 3.16 µM",85.4%
same,"viability, T/C","second compound 0.0316 µM, first compound 10 µM",53.8%
same,"viability, T/C","second compound 0.1 µM, first compound 0.0316 µM",58.8%
same,"viability, T/C","second compound 0.1 µM, first compound 0.1 µM",66.5%
same,"viability, T/C","second compound 0.1 µM, first compound 0.316 µM",65.5%
same,"viability, T/C","second compound 0.1 µM, first compound 1 µM",69%
same,"viability, T/C","second compound 0.1 µM, first compound 3.16 µM",73.2%
same,"viability, T/C","second compound 0.1 µM, first compound 10 µM",47.1%
same,"viability, T/C","second compound 0.316 µM, first compound 0.0316 µM",53.7%
same,"viability, T/C","second compound 0.316 µM, first compound 0.1 µM",59%
same,"viability, T/C","second compound 0.316 µM, first compound 0.316 µM",61.8%
same,"viability, T/C","second compound 0.316 µM, first compound 1 µM",61%
same,"viability, T/C","second compound 0.316 µM, first compound 3.16 µM",62.8%
same,"viability, T/C","second compound 0.316 µM, first compound 10 µM",48%
same,"viability, T/C","second compound 1 µM, first compound 0.0316 µM",47%
same,"viability, T/C","second compound 1 µM, first compound 0.1 µM",53.3%
same,"viability, T/C","second compound 1 µM, first compound 0.316 µM",53.7%
same,"viability, T/C","second compound 1 µM, first compound 1 µM",55.5%
same,"viability, T/C","second compound 1 µM, first compound 3.16 µM",57.5%
same,"viability, T/C","second compound 1 µM, first compound 10 µM",46.9%
CC(=O)c1c(C)c2cnc(Nc3ccc(N4CCNCC4)cn3)nc2n(C2CCCC2)c1=O + CCN1CCN(Cc2ccc(Nc3ncc(F)c(-c4cc(F)c5nc(C)n(C(C)C)c5c4)n3)nc2)CC1,IC50,second compound 0.01 µM,274 nM
same,IC50,second compound 0.0316 µM,63.1 nM
same,IC50,second compound 0.1 µM,8.82 nM
same,IC50,second compound 0.316 µM,2.61 nM
same,IC50,second compound 1 µM,< 0.949 nM
same,"viability, T/C","second compound 0.01 µM, first compound 0.000949 µM",79.7%
same,"viability, T/C","second compound 0.01 µM, first compound 0.003 µM",77.4%
same,"viability, T/C","second compound 0.01 µM, first compound 0.00949 µM",66%
same,"viability, T/C","second compound 0.01 µM, first compound 0.03 µM",57.5%
same,"viability, T/C","second compound 0.01 µM, first compound 0.0949 µM",53.3%
same,"viability, T/C","second compound 0.01 µM, first compound 0.3 µM",48.9%
same,"viability, T/C","second compound 0.0316 µM, first compound 0.000949 µM",68%
same,"viability, T/C","second compound 0.0316 µM, first compound 0.003 µM",62.5%
same,"viability, T/C","second compound 0.0316 µM, first compound 0.00949 µM",56.5%
same,"viability, T/C","second compound 0.0316 µM, first compound 0.03 µM",50.9%
same,"viability, T/C","second compound 0.0316 µM, first compound 0.0949 µM",49.1%
same,"viability, T/C","second compound 0.0316 µM, first compound 0.3 µM",46.7%
same,"viability, T/C","second compound 0.1 µM, first compound 0.000949 µM",57.7%
same,"viability, T/C","second compound 0.1 µM, first compound 0.003 µM",52.3%
same,"viability, T/C","second compound 0.1 µM, first compound 0.00949 µM",51.8%
same,"viability, T/C","second compound 0.1 µM, first compound 0.03 µM",46.9%
same,"viability, T/C","second compound 0.1 µM, first compound 0.0949 µM",40.5%
same,"viability, T/C","second compound 0.1 µM, first compound 0.3 µM",42%
same,"viability, T/C","second compound 0.316 µM, first compound 0.000949 µM",51.5%
same,"viability, T/C","second compound 0.316 µM, first compound 0.003 µM",49%
same,"viability, T/C","second compound 0.316 µM, first compound 0.00949 µM",51%
same,"viability, T/C","second compound 0.316 µM, first compound 0.03 µM",45.6%
same,"viability, T/C","second compound 0.316 µM, first compound 0.0949 µM",45.5%
same,"viability, T/C","second compound 0.316 µM, first compound 0.3 µM",46.8%
same,"viability, T/C","second compound 1 µM, first compound 0.000949 µM",41.4%
same,"viability, T/C","second compound 1 µM, first compound 0.003 µM",43.1%
same,"viability, T/C","second compound 1 µM, first compound 0.00949 µM",42.3%
same,"viability, T/C","second compound 1 µM, first compound 0.03 µM",35.9%
same,"viability, T/C","second compound 1 µM, first compound 0.0949 µM",39.2%
same,"viability, T/C","second compound 1 µM, first compound 0.3 µM",42.4%
